Measurements as given in patent US20260285855A1, “HETEROARYL DERIVATIVES AS DDRS INHIBITORS” (CHIESI FARMACEUTICI S.P.A., priority 2023, published 2026).

Columns and labels:
DDR2 = biological target: T1, DDR2 (Homo sapiens, UniProt Q16832); experiment: LanthaScreen Europium Kinase Binding assay, DDR2; settings: 5 nM DDR2, 10 nM Kinase Tracer 178, 1 h at rt; Ki from IC50 by Cheng-Prusoff; read-out: Ki DDR2
T1 construct: purchased Life Technologies
T1 sequence (Q16832 22-855): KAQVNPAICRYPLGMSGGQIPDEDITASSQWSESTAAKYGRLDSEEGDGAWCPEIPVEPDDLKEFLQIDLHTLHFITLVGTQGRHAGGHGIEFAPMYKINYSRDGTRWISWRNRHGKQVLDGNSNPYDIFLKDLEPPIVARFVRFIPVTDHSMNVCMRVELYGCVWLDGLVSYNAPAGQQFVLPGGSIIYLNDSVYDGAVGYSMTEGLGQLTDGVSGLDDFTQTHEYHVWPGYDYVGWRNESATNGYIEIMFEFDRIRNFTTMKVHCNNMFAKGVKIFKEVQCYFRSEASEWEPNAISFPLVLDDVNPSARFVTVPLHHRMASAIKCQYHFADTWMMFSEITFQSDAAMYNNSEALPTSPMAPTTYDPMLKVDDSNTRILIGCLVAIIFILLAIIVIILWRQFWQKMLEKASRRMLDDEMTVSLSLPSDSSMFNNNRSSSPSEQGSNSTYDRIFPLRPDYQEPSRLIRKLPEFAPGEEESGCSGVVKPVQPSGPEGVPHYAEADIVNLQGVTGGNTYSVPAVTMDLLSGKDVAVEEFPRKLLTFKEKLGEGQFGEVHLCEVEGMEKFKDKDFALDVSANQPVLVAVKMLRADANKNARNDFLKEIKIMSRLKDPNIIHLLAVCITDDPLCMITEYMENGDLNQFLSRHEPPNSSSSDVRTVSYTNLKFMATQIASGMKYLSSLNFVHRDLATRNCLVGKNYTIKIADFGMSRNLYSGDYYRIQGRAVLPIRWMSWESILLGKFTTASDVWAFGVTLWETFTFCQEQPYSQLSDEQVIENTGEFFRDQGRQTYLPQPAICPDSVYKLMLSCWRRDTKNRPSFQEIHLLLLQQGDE
Procedure: (§1) DDR1 and DDR2 binding assays were performed using Life Technologies LanthaScreen™ Europium Kinase Binding assay. […] IC50 values were determined in GraphPad Prism 7.0 software, using 4 parameter model: log (inhibitor) vs. response. IC50 values were converted in Ki using the Cheng-Prusoff equation (Ki-IC50/(1+ [Tracer]/Kd).

DDR1 = biological target: T2, DDR1 (Homo sapiens, UniProt Q08345); experiment: LanthaScreen Europium Kinase Binding assay, DDR1; settings: 5 nM DDR1, 20 nM Kinase Tracer 178, 1 h at rt; Ki from IC50 by Cheng-Prusoff; read-out: Ki DDR1
T2 construct: purchased Carna Biosciences
Procedure: as §1

T2 sequence (Q08345 19-913): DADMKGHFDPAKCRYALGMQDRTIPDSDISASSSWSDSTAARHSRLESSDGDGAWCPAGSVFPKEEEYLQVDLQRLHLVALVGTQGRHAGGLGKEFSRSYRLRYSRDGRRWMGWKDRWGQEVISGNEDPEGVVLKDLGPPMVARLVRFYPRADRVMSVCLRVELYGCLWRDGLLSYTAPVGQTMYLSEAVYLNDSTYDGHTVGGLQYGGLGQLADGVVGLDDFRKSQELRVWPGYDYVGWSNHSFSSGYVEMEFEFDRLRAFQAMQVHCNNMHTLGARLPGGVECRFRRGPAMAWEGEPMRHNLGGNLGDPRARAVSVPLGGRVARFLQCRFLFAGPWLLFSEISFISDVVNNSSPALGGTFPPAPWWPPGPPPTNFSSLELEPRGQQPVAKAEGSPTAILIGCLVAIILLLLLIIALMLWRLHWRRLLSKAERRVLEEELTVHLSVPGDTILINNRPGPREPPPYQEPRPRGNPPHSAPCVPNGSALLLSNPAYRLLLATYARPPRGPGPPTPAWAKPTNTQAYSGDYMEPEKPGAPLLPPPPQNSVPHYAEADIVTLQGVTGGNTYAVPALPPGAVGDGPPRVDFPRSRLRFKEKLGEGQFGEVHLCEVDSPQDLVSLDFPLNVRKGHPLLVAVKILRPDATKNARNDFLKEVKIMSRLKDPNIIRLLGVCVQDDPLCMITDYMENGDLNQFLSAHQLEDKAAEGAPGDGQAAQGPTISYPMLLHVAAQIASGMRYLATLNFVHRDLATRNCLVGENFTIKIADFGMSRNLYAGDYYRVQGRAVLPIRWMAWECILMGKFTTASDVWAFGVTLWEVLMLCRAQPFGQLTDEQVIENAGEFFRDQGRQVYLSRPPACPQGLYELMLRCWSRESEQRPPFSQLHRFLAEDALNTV

How did the Ki (DDR2) turn out when `Cc1cc(NC(=O)N(C)C2CC3(C2)CN(C(=O)c2cnn4ccn(C)c24)C3)cc(C(F)(F)F)c1` [Example 223, 1-methyl-1-(2-(1-methyl-1H-imidazo[1,2-b]pyrazole-7-carbonyl)-2-azaspiro[3.3]heptan-6-yl)-3-(3-methyl-5-(trifluoromethyl)phenyl)urea] was run?
Its Ki is 5 to 25 nM.

And the Ki (DDR1)?
Its Ki is < 5 nM.

Which Ki (DDR2) does the source give for `CN(C(=O)Nc1cncc(OC(F)(F)F)c1)C1CC2(C1)CN(c1cnc3[nH]ncc3c1)C2` [Example 221, 1-(2-(1H-pyrazolo[3,4-b]pyridin-5-yl)-2-azaspiro[3.3]heptan-6-yl)-1-methyl-3-(5-(trifluoromethoxy)pyridin-3-yl)urea] here?
The Ki was 5 to 25 nM.

And the Ki (DDR1)?
Its Ki is < 5 nM.

How did the Ki (DDR2) turn out when `Cn1ccn2ncc(C(=O)N3CC4(CC(OC(=O)Nc5cc(OC(F)(F)F)ccn5)C4)C3)c12` [Example 294, 2-(1-methyl-1H-imidazo[1,2-b]pyrazole-7-carbonyl)-2-azaspiro[3.3]heptan-6-yl(4-(trifluoromethoxy)pyridin-2-yl)carbamate] was run?
The Ki was < 5 nM.

And the Ki (DDR1)?
The Ki was < 5 nM.

`COc1ncc(Cl)cc1NC(=O)NC1CC2(C1)CN(C(=O)c1cnn3ccn(C)c13)C2` [Example 83, 1-(5-chloro-2-methoxypyridin-3-yl)-3-(2-(1-methyl-1H-imidazo[1,2-b]pyrazole-7-carbonyl)-2-azaspiro[3.3]heptan-6-yl)urea] was tested. Which Ki (DDR2) did it give?
Its Ki is 5 to 25 nM.

And the Ki (DDR1)?
Its Ki is < 5 nM.

Which results are given for `CN(C(=O)Nc1cc(OC(F)F)ccn1)C1CC2(C1)CN(C(=O)c1cnn3ccn(C)c13)C2` [Example 177, 3-(4-(difluoromethoxy)pyridin-2-yl)-1-methyl-1-(2-(1-methyl-1H-imidazo[1,2-b]pyrazole-7-carbonyl)-2-azaspiro[3.3]heptan-6-yl)urea]?
Ki (DDR2): 25 to 100 nM; Ki (DDR1): < 5 nM

`O=C(Nc1cccc(CC(F)(F)F)c1)NC1CC2(C1)CN(C(=O)c1cnn3ccsc13)C2` [Example 31, 1-(2-(pyrazolo[5,1-b]thiazole-7-carbonyl)-2-azaspiro[3.3]heptan-6-yl)-3-(3-(2,2,2-trifluoroethyl)phenyl)urea] was tested. Which Ki (DDR2) did it give?
Its Ki is < 5 nM.

What about the Ki (DDR1) of the same molecule?
Its Ki is < 5 nM.

Which Ki (DDR2) does the source give for `CN(C(=O)Nc1cc(C(F)(F)C(F)(F)F)ccn1)C1CC2(C1)CN(C(=O)c1cnn3ccn(C)c13)C2` [Example 305, 1-methyl-1-(2-(1-methyl-1H-imidazo[1,2-b]pyrazole-7-carbonyl)-2-azaspiro[3.3]heptan-6-yl)-3-(4-(perfluoroethyl)pyridin-2-yl)urea] here?
Its Ki is 5 to 25 nM.

What about the Ki (DDR1) of the same molecule?
Its Ki is < 5 nM.

With `CN(C)Cc1ccc(NC(=O)NC2CC3(C2)CN(C(=O)c2ncnc4ccsc24)C3)cc1C(F)(F)F` [Example 112, 1-(4-((dimethylamino)methyl)-3-(trifluoromethyl)phenyl)-3-(2-(thieno[3,2-d]pyrimidine-4-carbonyl)-2-azaspiro[3.3]heptan-6-yl)urea] as the molecule, how does the Ki (DDR2) read?
The Ki was 5 to 25 nM.

What about the Ki (DDR1) of the same molecule?
Its Ki is < 5 nM.

What does the source list for `CN(C(=O)Nc1cc(OC(F)(F)F)ccn1)C1CC2(C1)CN(c1cnc3[nH]ncc3c1)C2` [Example 219, 1-(2-(1H-pyrazolo[3,4-b]pyridin-5-yl)-2-azaspiro[3.3]heptan-6-yl)-1-methyl-3-(4-(trifluoromethoxy)pyridin-2-yl)urea]?
Ki (DDR2): 5 to 25 nM; Ki (DDR1): < 5 nM
